Data as given in ChEMBL document CHEMBL1131216, “Anhydrolide macrolides. 2. Synthesis and antibacterial activity of 2,3-anhydro-6-O-methyl 11,12-carbazate erythromycin A analogues” (1998).
In brackets after ≈: the same amount, converted by molar mass.

Columns and labels:
Format in all cases: functional
Haemophilus influenzae = assay: In vitro antibacterial activity of DILL strain of Gram negative bacteria Haemophilus influenzae
Streptococcus pneumoniae [1] = assay: In vitro antibacterial activity of 5649 strain of Gram positive bacteria Streptococcus pneumoniae
Streptococcus pneumoniae [2] = assay: In vitro antibacterial activity of 5979 strain of Gram positive bacteria Streptococcus pneumoniae
Streptococcus pneumoniae [3] = assay: In vitro antibacterial activity of ATCC 6303 strain of Gram positive bacteria Streptococcus pneumoniae
Staphylococcus aureus [4] = assay: In vitro antibacterial activity of A5177 strain of Gram positive bacteria Staphylococcus aureus
Streptococcus pyogenes [5] = assay: In vitro antibacterial activity of 930 strain of Gram positive bacteria Streptococcus pyogenes
Streptococcus pyogenes [6] = assay: In vitro antibacterial activity of EES61 strain of Gram positive bacteria Streptococcus pyogenes
Streptococcus pyogenes [7] = assay: In vitro antibacterial activity of PIU2584 strain of Gram positive bacteria Streptococcus pyogenes
Staphylococcus aureus [8] = assay: In vitro antibacterial activity of A-5278 strain of Gram positive bacteria Staphylococcus aureus
Staphylococcus aureus [9] = assay: In vitro antibacterial activity of 6538P strain of Gram positive bacteria Staphylococcus aureus
Staphylococcus aureus [10] = assay: In vivo antibacterial activity of NCTC-10649 strain of Gram positive bacteria Staphylococcus aureus
Streptococcus pneumoniae [11] = assay: In vivo antibacterial activity of ATCC 6303 strain of Gram positive bacteria Streptococcus pneumoniae (95% confidence interval)
Staphylococcus aureus [12] = assay: In vivo antibacterial activity of NCTC-10649 strain of Gram positive bacteria Staphylococcus aureus (95% confidence interval)
Streptococcus pneumoniae [13] = assay: In vivo antibacterial activity of ATCC 6303 strain of Gram positive bacteria Streptococcus pneumoniae

Row | MIC (Haemophilus influenzae) [µg/mL] | MIC (Streptococcus pneumoniae [1]) [µg/mL] | MIC (Streptococcus pneumoniae [2]) [µg/mL] | MIC (Streptococcus pneumoniae [3]) [µg/mL] | MIC (Staphylococcus aureus [4]) [µg/mL] | MIC (Streptococcus pyogenes [5]) [µg/mL] | MIC (Streptococcus pyogenes [6]) [µg/mL] | MIC (Streptococcus pyogenes [7]) [µg/mL] | MIC (Staphylococcus aureus [8]) [µg/mL] | MIC (Staphylococcus aureus [9]) [µg/mL] | MIC (Staphylococcus aureus [10]) [µg/mL] | MIC (Streptococcus pneumoniae [13]) [µg/mL] | Compound | ED50 (Streptococcus pneumoniae [11]) [mg/kg/day] | ED50 (Staphylococcus aureus [12]) [mg/kg/day]
1 | 2 (≈ 2.62 µM) | 0.5 (≈ 0.655 µM) | > 128 | 0.03 (≈ 0.0393 µM) | 0.01 (≈ 0.0131 µM) | 64 (≈ 83.9 µM) | 0.004 (≈ 0.00524 µM) | 0.25 (≈ 0.328 µM) | > 100 | 0.02 (≈ 0.0262 µM) | – | – | CC[C@H]1OC(=O)/C(C)=C/[C@H](C)[C@@H](O[C@@H]2O[C@H](C)C[C@H](N(C)C)[C@H]2O)[C@@](C)(OC)C[C@@H](C)C(=O)[C@H](C)[C@H]2N(NC/C=C/c3ccc([N+](=O)[O-])o3)C(=O)O[C@]12C | – | –
2 | 32 (≈ 43.6 µM) | 2 (≈ 2.73 µM) | > 128 | 1 (≈ 1.36 µM) | 0.78 (≈ 1.06 µM) | > 128 | 1 (≈ 1.36 µM) | 16 (≈ 21.8 µM) | > 100 | 0.78 (≈ 1.06 µM) | – | – | CC[C@H]1OC(=O)/C(C)=C/[C@H](C)[C@@H](O[C@@H]2O[C@H](C)C[C@H](N(C)C)[C@H]2O)[C@@](C)(OC)C[C@@H](C)C(=O)[C@H](C)[C@H]2N(NCc3ccc(O)c(O)c3)C(=O)O[C@]12C | – | –
3 | 4 (≈ 5.19 µM) | 1 (≈ 1.3 µM) | > 128 | 0.03 (≈ 0.0389 µM) | 0.1 (≈ 0.13 µM) | > 128 | 0.03 (≈ 0.0389 µM) | 1 (≈ 1.3 µM) | > 100 | 0.2 (≈ 0.259 µM) | – | – | CC[C@H]1OC(=O)/C(C)=C/[C@H](C)[C@@H](O[C@@H]2O[C@H](C)C[C@H](N(C)C)[C@H]2O)[C@@](C)(OC)C[C@@H](C)C(=O)[C@H](C)[C@H]2N(NCCCn3nnc4ccccc43)C(=O)O[C@]12C | – | –
4 | 16 (≈ 20.9 µM) | 1 (≈ 1.31 µM) | 16 (≈ 20.9 µM) | 0.03 (≈ 0.0392 µM) | 0.05 (≈ 0.0654 µM) | 16 (≈ 20.9 µM) | 0.125 (≈ 0.164 µM) | 1 (≈ 1.31 µM) | 25 (≈ 32.7 µM) | 0.1 (≈ 0.131 µM) | – | – | CC[C@H]1OC(=O)/C(C)=C/[C@H](C)[C@@H](O[C@@H]2O[C@H](C)C[C@H](N(C)C)[C@H]2O)[C@@](C)(OC)C[C@@H](C)C(=O)[C@H](C)[C@H]2N(NCCCc3ccc(Cl)cc3)C(=O)O[C@]12C | – | –
5 | 16 (≈ 21.4 µM) | 2 (≈ 2.68 µM) | > 128 | 0.03 (≈ 0.0402 µM) | 0.2 (≈ 0.268 µM) | > 128 | 0.03 (≈ 0.0402 µM) | 2 (≈ 2.68 µM) | > 100 | 0.2 (≈ 0.268 µM) | – | – | CC[C@H]1OC(=O)/C(C)=C/[C@H](C)[C@@H](O[C@@H]2O[C@H](C)C[C@H](N(C)C)[C@H]2O)[C@@](C)(OC)C[C@@H](C)C(=O)[C@H](C)[C@H]2N(NCCCc3ccccc3O)C(=O)O[C@]12C | – | –
6 | 8 (≈ 10.9 µM) | 2 (≈ 2.73 µM) | > 64 | 0.125 (≈ 0.171 µM) | 0.2 (≈ 0.273 µM) | > 64 | 0.03 (≈ 0.041 µM) | 1 (≈ 1.37 µM) | > 100 | 0.2 (≈ 0.273 µM) | – | – | CC[C@H]1OC(=O)/C(C)=C/[C@H](C)[C@@H](O[C@@H]2O[C@H](C)C[C@H](N(C)C)[C@H]2O)[C@@](C)(OC)C[C@@H](C)C(=O)[C@H](C)[C@H]2N(NCc3ccc(OC)cc3)C(=O)O[C@]12C | – | –
7 | 4 (≈ 5.36 µM) | 0.5 (≈ 0.67 µM) | > 128 | 0.03 (≈ 0.0402 µM) | 0.1 (≈ 0.134 µM) | 128 (≈ 172 µM) | 0.06 (≈ 0.0804 µM) | 1 (≈ 1.34 µM) | > 100 | 0.1 (≈ 0.134 µM) | – | – | CC[C@H]1OC(=O)/C(C)=C/[C@H](C)[C@@H](O[C@@H]2O[C@H](C)C[C@H](N(C)C)[C@H]2O)[C@@](C)(OC)C[C@@H](C)C(=O)[C@H](C)[C@H]2N(NCCCc3cccc(O)c3)C(=O)O[C@]12C | – | –
8 | 16 (≈ 22.3 µM) | 1 (≈ 1.39 µM) | > 128 | 0.25 (≈ 0.349 µM) | 0.78 (≈ 1.09 µM) | > 128 | 0.06 (≈ 0.0837 µM) | 1 (≈ 1.39 µM) | > 100 | 0.78 (≈ 1.09 µM) | – | – | CC[C@H]1OC(=O)/C(C)=C/[C@H](C)[C@@H](O[C@@H]2O[C@H](C)C[C@H](N(C)C)[C@H]2O)[C@@](C)(OC)C[C@@H](C)C(=O)[C@H](C)[C@H]2N(NCc3ccc(N)cc3)C(=O)O[C@]12C | – | –
9 | 8 (≈ 10.4 µM) | 1 (≈ 1.29 µM) | 64 (≈ 82.8 µM) | 0.03 (≈ 0.0388 µM) | 0.2 (≈ 0.259 µM) | 32 (≈ 41.4 µM) | 0.06 (≈ 0.0776 µM) | 1 (≈ 1.29 µM) | 100 (≈ 129 µM) | 0.2 (≈ 0.259 µM) | 0.2 (≈ 0.259 µM) | 0.004 (≈ 0.00518 µM) | CC[C@H]1OC(=O)/C(C)=C/[C@H](C)[C@@H](O[C@@H]2O[C@H](C)C[C@H](N(C)C)[C@H]2O)[C@@](C)(OC)C[C@@H](C)C(=O)[C@H](C)[C@H]2N(NC/C=C/c3ccc([N+](=O)[O-])cc3)C(=O)O[C@]12C | 16.8 | 50.1
10 | > 128 | 16 (≈ 26.2 µM) | > 128 | 8 (≈ 13.1 µM) | 50 (≈ 81.7 µM) | > 128 | 8 (≈ 13.1 µM) | 32 (≈ 52.3 µM) | > 100 | 50 (≈ 81.7 µM) | – | – | CC[C@H]1OC(=O)/C(C)=C/[C@H](C)[C@@H](O[C@@H]2O[C@H](C)C[C@H](N(C)C)[C@H]2O)[C@@](C)(OC)C[C@@H](C)C(=O)[C@@H](C)[C@H]2N(N)C(=O)O[C@]12C | – | –
